# In patent publication US11629171B2, “Beta-hairpin peptidomimetics” (POLYPHOR AG, priority 2017, dated 2023):
# Where a SMILES comes first, the peptide text is derived from it. Bridges are numbered along the chain shown (N, C = ends). Roman numbers before positions name the chains, in order. [ ]: non-standard residue; d: D form. Thr(ol) = C[C@@H](O)[C@H](N)CO; Tle = CC(C)(C)[C@H](N)C(=O)O; Hiv = CC(C)[C@H](O)C(=O)O; dDab = NCC[C@@H](N)C(=O)O; hSer = N[C@@H](CCO)C(=O)O; Dab = NCC[C@H](N)C(=O)O; Dap = NC[C@H](N)C(=O)O
# How the values were obtained:
# Assay type in all cases: cell-based
# [1] = test system: Acinetobacter baumannii 872842; settings: 872842
# Method in brief: (§1)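 Two-fold peptide dilutions in polysorbate 80-containing (0.002% final) cation-adjusted Mueller-Hinton II broth were inoculated with about 10^6 CFU/mL. The MIC was taken as the lowest concentration, in μg/mL, preventing visible growth at 18-20 hours and 35° C.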
# [2] = test system: Escherichia coli ATCC 25922; settings: ATCC 25922
# Method in brief: as §1
# [3] = test system: Enterobacter cloacae 848840; settings: 848840
# Method in brief: as §1
# [4] = test system: Acinetobacter baumannii DSM 30008; settings: DSM 30008
# Method in brief: as §1
# [5] = test system: Klebsiella pneumoniae SSI #3010; settings: SSI #3010
# Method in brief: as §1
# Escherichia coli 926415 = settings: 926415
# Method in brief: as §1
# [6] = test system: Pseudomonas aeruginosa ATCC 27853; settings: ATCC 27853
# Method in brief: as §1
# [7] = test system: Klebsiella pneumoniae 968733; settings: 968733
# Method in brief: as §1
# [8] = test system: human red blood cells (hRBC); assay: Hemolysis; settings: red cells of human, 1 h, 200
# Method in brief: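 Hemoglobin release from PBS-washed hRBC at 20% (v/v), incubated 1 h at 37° C with peptides at 200 μg/mL, is measured at 540 nm. Values are blank corrected and given as a fraction of Triton X-100 lysis × 100%.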
Compound,MIC [1] [µg/mL],Escherichia coli ATCC 25922 MIC [2] [µg/mL],MIC [3] [µg/mL],Acinetobacter baumannii DSM 30008 MIC [4] [µg/mL],Klebsiella pneumoniae SSI #3010 MIC [5] [µg/mL],MIC (Escherichia coli 926415) [µg/mL],Pseudomonas aeruginosa ATCC 27853 MIC [6] [µg/mL],MIC [7] [µg/mL],MIC [2] [µg/mL],MIC [4] [µg/mL],MIC [5] [µg/mL],MIC [6] [µg/mL],Hemolysis at 200 μg/mL [8] [%]
CC(=O)N[C@@H](CCC(=O)O)C(=O)N[C@H](C(=O)N[C@H](C(=O)N[C@@H](Cc1ccc(O)cc1)C(=O)N[C@@H](CN)C(=O)N[C@@H](CCC(=O)N[C@@H](CCN)C(=O)N[C@H](C(=O)N[C@@H](CN)C(=O)N[C@H]1CCNC(=O)[C@H]([C@@H](C)O)NC(=O)[C@H](CCN)NC(=O)[C@H](CCN)NC(=O)[C@H](CC(C)C)NC(=O)[C@@H](CC(C)C)NC(=O)[C@H](CCN)NC1=O)[C@@H](C)O)C(=O)N[C@H](CCN)C(=O)N[C@@H](CCN)C(=O)N[C@@H](Cc1c[nH]c2ccccc12)C(=O)N[C@@H](CO)C(=O)N[C@H](C(=O)N[C@@H](C)C(=O)N[C@@H](CO)C(=O)N[C@@H](CCN)C(N)=O)C(C)(C)C)[C@@H](C)O)C(C)C [Ex. 247] (I: Ac-EVTY[Dap]E[dDab][Dab]WS[Tle]AS[Dab]-NH2 / II: [Dab]T[Dap][Dab][Dab][dL]L[Dab][Dab]T; amide I:6-II:N; lactam II:4-II:C),0.5,–,0.25,–,–,0.5,–,8,0.125,0.125,0.25,0.25,<1
CC(=O)N[C@H](C(=O)N[C@H](C(=O)N[C@@H](Cc1ccc(O)cc1)C(=O)N[C@H]1CSSC[C@@H](C(=O)N[C@H](C(=O)N[C@@H](C)C(=O)N[C@@H](CO)C(N)=O)C(C)(C)C)NC(=O)[C@H](Cc2c[nH]c3ccccc23)NC(=O)[C@H]([C@@H](C)O)NC(=O)[C@@H](CCN)NC(=O)[C@H](CCC(=O)N[C@@H](CCN)C(=O)N[C@H](C(=O)N[C@@H](CCN)C(=O)N[C@H]2CCNC(=O)[C@H]([C@@H](C)O)NC(=O)[C@H](CCN)NC(=O)[C@H](CCN)NC(=O)[C@H](CC(C)C)NC(=O)[C@@H](CC(C)C)NC(=O)[C@H](CCN)NC2=O)[C@@H](C)O)NC1=O)[C@@H](C)O)C(C)C [Ex. 178] (I: Ac-VTYCE[dDab]TWC[Tle]AS-NH2 / II: [Dab]T[Dab][Dab][Dab][dL]L[Dab][Dab]T; disulfide I:4-I:9; amide I:5-II:N; lactam II:4-II:C),0.25,–,0.25,–,–,0.5,–,2,0.125,0.0625,0.125,0.125,<1
CC(C)C[C@@H]1NC(=O)[C@@H](CC(C)C)NC(=O)[C@H](CCN)NC(=O)[C@@H](NC(=O)[C@H](CN)NC(=O)[C@@H](NC(=O)[C@H](CCN)NC(=O)CC[C@@H]2NC(=O)[C@H](CN)NC(=O)[C@H](Cc3ccc(O)cc3)NC(=O)[C@@H](NC(=O)[C@@H](O)C(C)C)CSSC[C@@H](C(=O)N[C@H](CO)[C@@H](C)O)NC(=O)[C@H](C(C)(C)C)NC(=O)[C@H](CO)NC(=O)[C@H](Cc3c[nH]c4ccccc34)NC(=O)[C@H](CCN)NC(=O)[C@@H](CCN)NC2=O)[C@@H](C)O)CCNC(=O)[C@H]([C@@H](C)O)NC(=O)[C@H](CCN)NC(=O)[C@H](CCN)NC1=O [Ex. 111] (I: H-[Hiv]CY[Dap]E[dDab][Dab]WS[Tle]C[Thr(ol)] / II: [Dab]T[Dap][Dab][Dab][dL]L[Dab][Dab]T; disulfide I:2-I:11; amide I:5-II:N; lactam II:4-II:C),0.0625,–,0.125,–,–,0.0625,–,0.125,0.125,0.03125,0.125,0.25,<1

# The next lines start with results.
MIC [1] [µg/mL],Escherichia coli ATCC 25922 MIC [2] [µg/mL],MIC [3] [µg/mL],Acinetobacter baumannii DSM 30008 MIC [4] [µg/mL],Klebsiella pneumoniae SSI #3010 MIC [5] [µg/mL],MIC (Escherichia coli 926415) [µg/mL],Pseudomonas aeruginosa ATCC 27853 MIC [6] [µg/mL],MIC [7] [µg/mL],MIC [2] [µg/mL],MIC [4] [µg/mL],MIC [5] [µg/mL],MIC [6] [µg/mL],Compound,Hemolysis at 200 μg/mL [8] [%]
0.25,0.0625,0.25,0.0625,0.125,0.25,0.125,0.25,–,–,–,–,"CC(=O)N[C@H](C(=O)N[C@H]1CCNC(=O)CC[C@@H](C(=O)N[C@@H](CO)C(N)=O)NC(=O)[C@H](C(C)C)NC(=O)[C@H](CO)NC(=O)[C@H](Cc2c[nH]c3ccccc23)NC(=O)CNC(=O)[C@@H](CCN)NC(=O)[C@H](CCC(=O)N[C@@H](CCN)C(=O)N[C@H](C(=O)N[C@@H](CN)C(=O)N[C@H]2CCNC(=O)[C@H]([C@@H](C)O)NC(=O)[C@H](CCN)NC(=O)[C@H](CCN)NC(=O)[C@H](CC(C)C)NC(=O)[C@@H](CC(C)C)NC(=O)[C@H](CCN)NC2=O)[C@@H](C)O)NC(=O)[C@H](CCN)NC(=O)[C@H](Cc2ccc(O)cc2)NC1=O)C(C)C [Ex. 349] (I: Ac-V[Dab]Y[Dab]E[dDab]GWSVES-NH2 / II: [Dab]T[Dap][Dab][Dab][dL]L[Dab][Dab]T; lactam I:2-I:11, II:4-II:C; amide I:5-II:N)",<1
0.03125,0.01562,0.03125,0.007813,0.03125,0.01562,0.0625,0.0625,–,–,–,–,CC(=O)N[C@H](C(=O)N[C@H]1CSSC[C@@H](C(=O)N[C@@H](C)C(=O)N[C@@H](C(N)=O)[C@H](C)O)NC(=O)[C@H](C(C)C)NC(=O)[C@H](CO)NC(=O)[C@H](Cc2c[nH]c3ccccc23)NC(=O)[C@H](CO)NC(=O)[C@@H](CCN)NC(=O)[C@H](CCC(=O)N[C@@H](CCN)C(=O)N[C@H](C(=O)N[C@@H](CN)C(=O)N[C@H]2CCNC(=O)[C@H]([C@@H](C)O)NC(=O)[C@H](CCN)NC(=O)[C@H](CCN)NC(=O)[C@H](CC(C)C)NC(=O)[C@@H](CC(C)C)NC(=O)[C@H](CCN)NC2=O)[C@@H](C)O)NC(=O)[C@H](CCN)NC(=O)[C@H](Cc2ccc(O)cc2)NC1=O)C(C)C [Ex. 368] (I: Ac-VCY[Dab]E[dDab]SWSVCA[dT]-NH2 / II: [Dab]T[Dap][Dab][Dab][dL]L[Dab][Dab]T; disulfide I:2-I:11; amide I:5-II:N; lactam II:4-II:C),1
0.25,–,0.125,–,–,0.5,–,1,0.0625,0.0625,0.125,0.25,CC(=O)N[C@H](C(=O)N[C@H]1CSSC[C@@H](C(=O)N[C@@H](CO)C(N)=O)NC(=O)[C@H](C(C)C)NC(=O)[C@H](CCC(=O)O)NC(=O)[C@H](Cc2c[nH]c3ccccc23)NC(=O)[C@H](CCO)NC(=O)[C@@H](CCN)NC(=O)[C@H](CCC(=O)N[C@@H](CCN)C(=O)N[C@H](C(=O)N[C@@H](CN)C(=O)N[C@H]2CCNC(=O)[C@H]([C@@H](C)O)NC(=O)[C@H](CCN)NC(=O)[C@H](CCN)NC(=O)[C@H](CC(C)C)NC(=O)[C@@H](CC(C)C)NC(=O)[C@H](CCN)NC2=O)[C@@H](C)O)NC(=O)[C@H](CCCCN)NC(=O)[C@H](Cc2ccc(O)cc2)NC1=O)C(C)C [Ex. 158] (I: Ac-VCYKE[dDab][hSer]WEVCS-NH2 / II: [Dab]T[Dap][Dab][Dab][dL]L[Dab][Dab]T; disulfide I:2-I:11; amide I:5-II:N; lactam II:4-II:C),<1
